Where two headings read alike, the source gives them in different places. Blank lines part the entries; values can stand above or below the compound they belong to.
How the values were obtained:
factor XIII = test: Inhibiting for factor XIII in absorbed plasma/calcium lactate buffer mixture (Example 4); type: biochemical, bovine; also: key: +: Yes; −: No
Method: (§1) To 100 ml of bovine plasma, barium sulfate in 20 w/v % was added. The mixture was mixed for 30 minutes at room temperature, and stirred slowly. Subsequently, the mixture was centrifuged at 5,000×g to remove the barium sulfate precipitate, and absorbed plasma was prepared by adding in the supernatant, and was mixed with 1 ml of N-ethylmaleimide, as inhibitor for Factor XIII. In other words, the composition prepared, contained at least Factor V and fibrinogen. Beside these, the absorbed plasma, without containing 1 mL of N-ethylmaleimide, was prepared and used, as a control.
(§2) Separately, one volume of the absorbed plasma and one volume of 20 mM Hepes-Tris buffer solution (pH 7.0), in which 10 mM of calcium lactate was added, were mixed together to prepare the solution. To the solution, each of substance, stated in Table 1 as below, was added so that mixture might show such a concentration as mentioned in the Table 1. With these mixtures, the inhibiting rate for factor XIII, and a producing rate of the insoluble matter after storage for 24 hours at 10° C. were measured.

[1] = Insoluble precipitation after storage of absorbed plasma mixture with various substances (Example 4); type: physicochemical, bovine; settings: storage 24 hours at 10° C. Also: key: +: Yes; −: No.
Method: as §1, §2

[2] = Stabilizing effect of 1:1 mixtures of NEM with other inhibitors, procedures of Examples 5 to 8 (Example 9); type: physicochemical, bovine
From the text: The procedures stated in the Examples 5 to 8 were repeatedly carried out using the mixtures of NEM with monochloroamide, acrylamide, glycinamide, and dithioprydine, as an inhibiting agent, in an amount of 1:1, as other representative examples.

[3] = Insoluble precipitation in three adsorbed plasmas with N-ethylmaleimide (Example 6); type: physicochemical, bovine; design: key: +: Insoluble precipitation; −: No insoluble precipitation; settings: NEM (+)
Method: To 100 ml of bovine plasma, barium sulfate in 20 w/v % was added. The mixture was mixed for 30 minutes at room temperature, and stirred slowly. Subsequently, the mixture was centrifuged at 5,000×g to remove the barium sulfate precipitate, and absorbed plasma was prepared by adding in the supernatant, and was mixed with 1 ml of N-ethylmaleimide, as inhibitor for Factor XIII. In other words, the composition prepared, contained at least Factor V and fibrinogen. Beside these, the absorbed plasma, without containing 1 mL of N-ethylmaleimide, was prepared and used, as a control. To study the effect of the present invention, one volume of three types absorbed plasma, prepared in the Example 2 and one volume of 20 mM Hepes-Trisbuffersolution were mixed together, and visually detected both after storing 24 hours at 10° C., and right after freeze-thawed at […]. As clearly seen in the Table 3, none of the adsorbed plasma mixed with N-ethylmaleimide observed the insoluble precipitation, neither in storing at 10° C. or after freeze-thawed treatment. […] Thus, it has become clear that the insoluble precipitation can be inhibited by adding N-ethylmaleimide.

[4] = system: commercially available control plasma; test: Reagent performance: coagulation activity / clotting time of control plasma on blood coagulation analyzer Coagre (Example 8); type: biochemical; settings: reagent with NEM added
Method: In order to confirm the performance of each reagent, prepared in the Example 8, the performance was evaluated using Blood coagulation analyzer, Coagre (manufactured by Shimazu, Co., Japan) by measuring clotting time with commercially available control plasma. The performance and stability of the reagent evaluated by using the reagents, prepared and preserved for several days at 10° C., to obtain plasma coagulation activity of control plasma. As clearly seen in the Table 5, clotting time was not varied even adding NEM.

[5] = Influence of N-ethylmaleimide concentration on insoluble precipitation, visually detected (Example 5); type: physicochemical, bovine; design: key: +: Insoluble Precipitation; ±: Slightly insoluble precipitation; −: No insoluble precipitate
Method: To 100 ml of bovine plasma, barium sulfate in 20 w/v % was added. The mixture was mixed for 30 minutes at room temperature, and stirred slowly. Subsequently, the mixture was centrifuged at 5,000×g to remove the barium sulfate precipitate, and absorbed plasma was prepared by adding in the supernatant, and was mixed with 1 ml of N-ethylmaleimide, as inhibitor for Factor XIII. In other words, the composition prepared, contained at least Factor V and fibrinogen. Beside these, the absorbed plasma, without containing 1 mL of N-ethylmaleimide, was prepared and used, as a control. The absorbed plasma was prepared in the same manner as stated in the Example 2, except that a concentration of N-ethylmaleimide was varied. Separately, one volume of the absorbed plasma and one volume of 20 mM Hepes-Tris buffer solution (pH 7.0), in which 10 mM of calcium lactate was added, were mixed together to prepare the solution, for which a producing rate of the insoluble matter was visually detected both after storing 24 hours at 10° C., and right after freeze-thawed at −20° C. As clearly seen in the Table 2, it has been cleared that N-ethylmaleimide may inhibit insoluble precipitation even with adding 1 mM concentration, however, more preferably 1 mM to 10 mM.

[6] = substance 1 mM in absorbed plasma + Hepes-Tris/calcium lactate
[7] = mixture of NEM with the inhibitor 1:1, procedures of Examples 5 to 8

Compound: O=C(O)CI [Monoiodo acetic acid]
Inhibiting for factor XIII (factor XIII; [6]): +
Precipitation ([1]; substance 1 mM): −

Compound: C=CC(N)=O [acrylamide]
stabilizing effect compared with NEM [2, 7]: equal or slightly inferior to NEM

Compound: CN(C)c1c([N+](=O)[O-])cc(N2C(=O)C=CC2=O)cc1[N+](=O)[O-] [N-(4-dimethylamino-3,5-dinitrophenyl) maleimide]
Inhibiting for factor XIII (factor XIII; [6]): +
Precipitation ([1]; substance 1 mM): −

Compound: [Cl-].[Na+] [NaCl]
Inhibiting for factor XIII (factor XIII; substance 10 mM in absorbed plasma + Hepes-Tris/calcium lactate): −

Compound: monochloroamide
stabilizing effect compared with NEM [2, 7]: equal or slightly inferior to NEM

Precipitation ([1]; substance 5%): +
Compound: OC[C@H]1O[C@@](CO)(O[C@H]2O[C@H](CO)[C@@H](O)[C@H](O)[C@H]2O)[C@@H](O)[C@@H]1O [Sucrose]
Inhibiting for factor XIII (factor XIII; substance 5% in absorbed plasma + Hepes-Tris/calcium lactate): −

stabilizing effect compared with NEM [2]: equal or slightly inferior to NEM
Compound: dithioprydine

stabilizing effect compared with NEM [2]: equal or slightly inferior to NEM
Compound: NCC(N)=O [glycinamide]

Compound: Bovine serum albumin: Bovine serum albumin, comparison substance added at 1%
Inhibiting for factor XIII (factor XIII; substance 1% in absorbed plasma + Hepes-Tris/calcium lactate): −
Precipitation ([1]; substance 1%): +

Insoluble precipitation ([3]; Adsorbed plasma 1, Storage after freeze-thawing at −20° C.): −
Insoluble precipitation ([3]; Adsorbed plasma 1, Storage at 10° C.): −
Insoluble precipitation ([3]; Adsorbed plasma 2, Storage after freeze-thawing at −20° C.): −
Insoluble precipitation ([3]; Adsorbed plasma 2, Storage at 10° C.): −
Insoluble precipitation ([3]; Adsorbed plasma 3, Storage after freeze-thawing at −20° C.): −
Insoluble precipitation ([3]; Adsorbed plasma 3, Storage at 10° C.): −
Precipitation ([1]; substance 1 mM): −
Insoluble precipitation ([5]; 0.1 mM, Bovine plasma 1, 24 hours at 10° C.): ±
Insoluble precipitation ([5]; 0.1 mM, Bovine plasma 1, freeze-thawed at −20° C.): +
Insoluble precipitation ([5]; 0.1 mM, Bovine plasma 2, 24 hours at 10° C.): ±
Insoluble precipitation ([5]; 0.1 mM, Bovine plasma 2, freeze-thawed at −20° C.): +
Insoluble precipitation ([5]; 1 mM, Bovine plasma 1, 24 hours at 10° C.): −
Insoluble precipitation ([5]; 1 mM, Bovine plasma 1, freeze-thawed at −20° C.): −
Insoluble precipitation ([5]; 1 mM, Bovine plasma 2, 24 hours at 10° C.): −
Insoluble precipitation ([5]; 1 mM, Bovine plasma 2, freeze-thawed at −20° C.): −
Insoluble precipitation ([5]; 2 mM, Bovine plasma 1, 24 hours at 10° C.): −
Insoluble precipitation ([5]; 2 mM, Bovine plasma 1, freeze-thawed at −20° C.): −
Insoluble precipitation ([5]; 2 mM, Bovine plasma 2, 24 hours at 10° C.): −
Insoluble precipitation ([5]; 2 mM, Bovine plasma 2, freeze-thawed at −20° C.): −
Insoluble precipitation ([5]; 5 mM, Bovine plasma 1, 24 hours at 10° C.): −
Insoluble precipitation ([5]; 5 mM, Bovine plasma 1, freeze-thawed at −20° C.): −
Insoluble precipitation ([5]; 5 mM, Bovine plasma 2, 24 hours at 10° C.): −
Insoluble precipitation ([5]; 5 mM, Bovine plasma 2, freeze-thawed at −20° C.): −
Insoluble precipitation ([5]; 10 mM, Bovine plasma 1, 24 hours at 10° C.): −
Insoluble precipitation ([5]; 10 mM, Bovine plasma 1, freeze-thawed at −20° C.): −
Insoluble precipitation ([5]; 10 mM, Bovine plasma 2, 24 hours at 10° C.): −
Insoluble precipitation ([5]; 10 mM, Bovine plasma 2, freeze-thawed at −20° C.): −
Compound: CCN1C(=O)C=CC1=O [N-ethylmaleimide]
Inhibiting for factor XIII (factor XIII; [6]): +
clotting time [4]: not varied

Source: US20030044872A1, “Means of stabilizing compositions and reagents” (priority 1999, published 2003)
